Results: patent publication US20050165032A1, “Vanilloid receptor ligands and their use in treatments” (priority 2004, published 2005)

| melting point [°C] | Compound |
| --- | --- |
| 304 to 306 | Cl.Clc1ccc2c(Nc3ccc4c(c3)OCCO4)ncnc2c1 |
| 229.8 | CC(=O)Nc1nc2c(Nc3ncnc4cc(Cl)ccc34)cccc2s1 [Example 2, N-[4-(7-Chloro-quinazolin-4-ylamino)-benzothiazol-2-yl]-acetamide] |
| 144.5 to 150 | FC(F)(F)c1ccc(Nc2ncnc3c2CCN(c2ncccc2C(F)(F)F)C3)cn1 [Example 10, (6-Trifluoromethyl-pyridin-3-yl)-[7-(3-trifluoromethyl-pyridin-2-yl)-5,6,7,8-tetrahydro-pyrido[3,4-d]pyrimidin-4-yl]-amine] |
| 162 to 163 | CC(C)(C)c1ccc(Oc2ncnc3cc(-c4ncccc4C(F)(F)F)ccc23)cc1 [Example 17, 4-(4-tert-Butyl-phenoxy)-7-(3-trifluoromethyl-pyridin-2-yl)-quinazoline] |
